Reference: paper PMC6792352, “Limited Chemical Structural Diversity Found to Modulate Thyroid Hormone Receptor in the Tox21 Chemical Library” (Environmental Health Perspectives, 2019)
Structures can show the parent of a compound that is named as a salt.

test: in vitro; conditions: rat, gh3-tre-luc cells, AC50 (uM) modified / 1000

Structure (SMILES)	CC50 at 24 h
CCCOc1ccc2nc(NC(=O)OC)sc2c1 [Tioxidazole]	2.38 µM
CN(C)/C=N/c1c(I)cc(I)c(CCC(=O)O)c1I [Ipodate sodium]	> 50 µM
CCCc1nn(C)c2c(=O)[nH]c(-c3cc(S(=O)(=O)N4CCN(C)CC4)ccc3OCC)nc12 [Sildenafil citrate]	> 50 µM
CCNc1nc(Cl)nc(NC(C)(C)C)n1 [Terbutylazine]	> 90 µM
CC(=O)Oc1cc2c(s1)CCN(C(C(=O)C1CC1)c1ccccc1F)C2 (stereo not drawn) [Prasugrel hydrochloride]	> 50 µM
C/C=C/C(=O)CCCC [2-Octen-4-one]	> 90 µM
CC(C1CC1)C(O)(Cn1cncn1)c1ccc(Cl)cc1 (stereo not drawn) [Cyproconazole]	> 90 µM
O=P(O)(O)OCC(O)CO (stereo not drawn) [Dipotassium glycerophosphate]	> 50 µM
CCCCCCCCCC(=O)OCC [Ethyl decanoate]	> 90 µM
CC(C)(C)c1ccc(CCOc2ncnc3ccccc23)cc1 [Fenazaquin]	> 90 µM
CC(NC(C)(C)C)C(=O)c1cccc(Cl)c1 (stereo not drawn) [Bupropion hydrochloride]	> 50 µM
COc1ccc(/C=C/C(=O)O)cc1 [4-Methoxy-(2E)-cinnamic acid]	> 50 µM
Cc1cccc(C(C)c2cnc[nH]2)c1C (stereo not drawn) [Medetomidine hydrochloride]	> 50 µM
CNC(C)Cc1ccccc1 (racemic) [dl-Methamphetamine hydrochloride]	> 90 µM
N#Cc1c2ccccc2cc2ccccc12 [9-Cyanoanthracene]	> 90 µM
Nc1cc(-c2ccncc2)c[nH]c1=O [Amrinone]	> 90 µM
COc1ccc(CN2CCNCC2)c(OC)c1OC [Trimetazidine dihydrochloride]	> 20 µM
O=C(Cl)c1c(Cl)cccc1Cl [2,6-Dichlorobenzoyl chloride]	> 90 µM
COC(=O)c1cccc(Cl)c1 [Methyl 3-chlorobenzoate]	> 90 µM
CCn1cc(C(=O)O)c(=O)c2cnc(N3CCCC3)nc21 [Piromidic acid]	> 20 µM
CCOCN(C(=O)CCl)c1c(C)cccc1CC [Acetochlor]	> 90 µM
Cc1cc(C)c(C(=O)P(=O)(C(=O)c2c(C)cc(C)cc2C)c2ccccc2)c(C)c1 [(Phenylphosphoryl)bis[(2,4,6-trimethylphenyl)methanone]]	> 90 µM
CN1CCN(c2cc3c(cc2F)c(=O)c(C(=O)O)cn3-c2ccc(F)cc2)CC1 [Difloxacin hydrochloride]	> 50 µM
CCOC(=O)Cc1cccc2ccccc12 [Ethyl 1-naphthaleneacetate]	> 90 µM
Cc1ccc(-c2ncc(Cl)cc2-c2ccc(S(C)(=O)=O)cc2)cn1 [Etoricoxib]	> 50 µM
CC(=Cc1ccccc1)[N+](=O)[O-] [(2-Nitro-1-propenyl)benzene]	10.3 µM
CC(C)[N+](C)(CCOC(=O)C1c2ccccc2Oc2ccccc21)C(C)C [Propantheline bromide]	> 90 µM
C[C@H]1C[C@@H]2[C@H]([C@@H](O)C[C@@]3(C)[C@H]2CC[C@]3(O)C(=O)COC(=O)CCC(=O)O)[C@@]2(C)C=CC(=O)C=C12 [Methylprednisolone succinate]	> 50 µM
CN1C(C(=O)Nc2ccccn2)=C(O)c2sccc2S1(=O)=O [Tenoxicam]	> 20 µM
O=C1CCC(=O)N1CO [N-Hydroxymethylsuccinimide]	> 50 µM

same assay, conditions: rat, gh3-tre-luc cells, AC50 (uM) modified / 1000, Tox21_110001=Tox21_202229; viability, 1 nM T3 present, 24 h

Structure (SMILES)	CC50 at 24 h
[Cl][Cd][Cl] [Cadmium chloride]	26.6 µM

same assay, conditions: rat, gh3-tre-luc cells, AC50 (uM) modified / 1000, Tox21_110001=Tox21_202253; viability, 1 nM T3 present, 24 h

Structure (SMILES)	CC50 at 24 h
c1ccc(N=NNc2ccccc2)cc1 [Diazoaminobenzene]	69 µM

same assay, conditions: rat, gh3-tre-luc cells, AC50 (uM) modified / 1000, Tox21_110001=Tox21_202464; viability, 1 nM T3 present, 24 h

Structure (SMILES)	CC50 at 24 h
CC(=O)/C=C/c1ccc2c(c1)OCO2 [Piperonal acetone]	57.5 µM

same assay, conditions: rat, gh3-tre-luc cells, AC50 (uM) modified / 1000, Tox21_110001=Tox21_302210; viability, 1 nM T3 present, 24 h

Structure (SMILES)	CC50 at 24 h
CNC(=O)Oc1c(C(C)(C)C)cc(C)cc1C(C)(C)C [Terbucarb]	> 90 µM

same assay, conditions: rat, gh3-tre-luc cells, AC50 (uM) modified / 1000, Tox21_110001=Tox21_303000; viability, 1 nM T3 present, 24 h

Structure (SMILES)	CC50 at 24 h
[Cl][Cd][Cl] [Cadmium chloride]	32.6 µM

same assay, conditions: rat, gh3-tre-luc cells, AC50 (uM) modified / 1000, Tox21_110001=Tox21_303249; viability, 1 nM T3 present, 24 h

Structure (SMILES)	CC50 at 24 h
c1ccc(N=NNc2ccccc2)cc1 [Diazoaminobenzene]	47.9 µM
